Measured values published in the METLIN SMRT retention time set (Domingo-Almenara et al. 2019).

assay: gradient 5% acetonitrile 3 min, to 50% in 2 min, to 85% in 15 min, held 3 min, 100 µL/min; conditions: column: Zorbax Extend-C18 2.1 x 50 mm; eluents: water / acetonitrile, 0.1% formic acid
Method in brief: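 A Zorbax Extend-C18 column (2.1 × 50 mm, 1.8 μm) run at 100 μL/min with water and acetonitrile, both containing 0.1% formic acid, separated mixtures of ~100 pure standards. The HPLC was coupled to a quadrupole time-of-flight mass spectrometer operated in positive and negative ionization mode, with dead and dwell volumes of 40 μL and 900 μL. Each retention time was taken from a computationally picked adduct peak that was then manually inspected.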

SMILES | RP-LC retention time [s]
CCCn1cc(CCNC(=O)Nc2cccc(C)c2C)c2cccnc21 | 785
CCCN(C(=O)Nc1cc(C)cc(C)c1)c1nc(-c2ccc(C3CCCCC3)cc2)cs1 | 856
Cc1ccc(-c2nc(-c3ccc(-c4noc(CNC(=O)Cc5ccccc5)n4)cc3)cs2)s1 | 1200
CC(=O)NCCn1c(SCC(=O)OCc2ccccc2)nc2ccccc2c1=O | 767
Cc1cc(=O)n(CC(=O)Nc2ccc(C)c(C)c2)c(N2CCOCC2)n1 | 697
O=C(Cn1cnc2c(-c3ccc(F)cc3)csc2c1=O)N1CCCC1 | 783
COc1ccc2oc(-c3noc(CNC(C)=O)n3)c(C)c2c1 | 750
O=C(c1ccc(Br)cc1)N1CCN(c2cc(-c3ccccc3)[nH]n2)CC1 | 849
CC(=O)N1CCC(C(=O)NCc2ccccc2)(N(C(=O)c2ccc(C)cc2)C2CCCC2)CC1 | 942
CC(C)c1nncn1C1CCN(S(=O)(=O)c2ccccc2F)CC1 | 692
COc1ccc(-n2nc(C(=O)N3CCN(c4ccccn4)CC3)c(=O)n(C)c2=O)cc1 | 623
O=c1n(Cc2ccc(F)cc2)nc2c(S(=O)(=O)N3CCN(c4ccc(F)cc4)CC3)cccn12 | 991
COCC(=O)N1C[C@@H]2C(=O)N(CCc3ccccc3)C(=O)[C@@H]2C1 | 662
O=C(CCc1nc(-c2ccc(N3CCCCC3)cc2)no1)N1CCC2(CC1)OCCO2 | 798
Cc1c(Cl)cccc1S(=O)(=O)N1CCC(CN2CCCCCC2)CC1 | 733
O=C1c2cccc3c2[C@H](CCC3)CN1[C@@H]1CN2CCC1CC2 | 678
O=C(Nc1cc(C(F)(F)F)ccc1Cl)c1ccc2ncsc2c1 | 922
Cc1ccn2c(=O)c(C(=O)Nc3nc(C)cs3)cnc2c1 | 673
COc1ccc(-c2nc3cnccn3c2Nc2ccc(C(=O)NCC3CCCO3)cc2)cc1OC (stereo not drawn) | 645
Cc1ccc2[nH]cc(CCNC(=O)C3CCCN(c4nccc(C)n4)C3)c2c1 (stereo not drawn) | 741
Nc1nc(Nc2ccccc2)nc2c1ncn2[C@@H]1O[C@H](CO)[C@H](O)C1O (stereo partly drawn) | 579
Cc1c(C(=O)NCC2CC2)cnn1-c1cc(-c2nc(C3CC3)no2)ccn1 | 909

SMILES | RP-LC retention time [s]
COc1cccc2cc(C(=O)Nc3nnc(Cc4ccc(Cl)s4)o3)oc12 | 860
COc1ccc(-c2cc3n(n2)CCCN(S(=O)(=O)c2cccc(C#N)c2)C3)cc1OC | 814
Cc1ccc(C(=O)NC2CCN(c3cc(-c4cccs4)[nH]n3)C2)cc1 (stereo not drawn) | 733
Cc1ccc(-n2nc(C)c(S(=O)(=O)N3CCC(C(=O)NCc4cccs4)CC3)c2C)cc1 | 919
COC(=O)c1c(C)[nH]c(C(=O)N2CCC(CC(=O)NCCc3ccco3)CC2)c1C | 683
CCn1c(=O)c2cc(C(=O)Nc3ccc(OC)cc3OC)nn2c2ccccc21 | 1030
O=C(c1ccc2cc[nH]c2c1)N1CCC(c2nc(-c3ccccc3)no2)C1 (stereo not drawn) | 866
Cc1ccc(-c2csc(Cc3nc(-c4ccccc4)no3)n2)cc1 | 1250
Cc1ccn2cc(-c3ccc(NS(=O)(=O)c4ccc(C)c(C)c4)cc3)nc2n1 | 682
CCOc1ccc(N(C)C(=O)C2CCN(S(=O)(=O)c3ccc4c(c3)NC(=O)CO4)CC2)cc1 | 784
CCOC(=O)c1[nH]c(C)c(CN(Cc2ccco2)C(=O)Nc2ccccc2F)c1C | 976
COc1ccc(-c2c(C)noc2NC(C)=O)cc1S(=O)(=O)N1CCc2ccccc21 | 784
Cc1cc(Cl)ccc1S(=O)(=O)N1CCc2c(c(CN3CCCC3)nn2C)C1 | 679
O=C1CC(NC(=O)NCc2ccc(Cl)cc2)CN1 (stereo not drawn) | 592
Cc1ccc2c(c1)C(C)(C)C(=O)N2CC(=O)NCc1cccnc1 | 612
O=C(c1c(F)cccc1Cl)N1CCN(S(=O)(=O)c2cc3c4c(c2)CCC(=O)N4CCC3)CC1 | 828
Cc1nn(-c2ccccc2)c(C)c1S(=O)(=O)N1CCC(C(=O)NC2CCCCCCC2)CC1 | 1050
CC(C)c1ccc(N2CC(c3nc(-c4ccc5c(c4)OCO5)no3)CC2=O)cc1 (stereo not drawn) | 1100
CCN1C(=O)C(C)(C)COc2cc(NC(=O)Nc3ccccc3C(F)(F)F)ccc21 | 943
Cc1ccccc1NC(=O)Cn1cnc2nc(N3CCCC(C(=O)NC4CC4)C3)sc2c1=O (stereo not drawn) | 644
COc1ccc(Br)cc1CNC(=O)Cn1cnc2nc3c(cc2c1=O)CC(C)CC3 (stereo not drawn) | 845
CCc1ccc(N2CC(c3noc(-c4ccc5c(c4)OCO5)n3)CC2=O)cc1 (stereo not drawn) | 1060

SMILES | RP-LC retention time [s]
Cc1nn(-c2ccc(F)cc2)c2nc(N3CCCC(C(=O)NCc4cccc(F)c4)C3)sc12 (stereo not drawn) | 1130
CSc1ccccc1C(=O)NCC1CN(c2ccccc2)C(=O)O1 (stereo not drawn) | 712
COc1cccc(CN2C[C@@H](CO)[C@H](c3ccccn3)C2)c1OC | 592
CCc1nc(-c2ccc(S(=O)(=O)N3CCC(C(=O)NC4CCCCC4)CC3)cc2)no1 | 954
O=C(NCC1CCCO1)c1nnn(-c2ccccc2Cl)c1-c1ccncc1 (stereo not drawn) | 693
CN(CC(=O)N1CCN(c2ccccn2)CC1)c1nnc(N2CCCC2=O)s1 | 550
O=C(CCc1nc2ccccc2n(CC(=O)Nc2cc(F)ccc2F)c1=O)NCc1ccccc1 | 884
Cc1ccc2c(=O)c(C(=O)Nc3cccc(F)c3)c[nH]c2n1 | 770
CCc1nc2c(c(=O)n1CC(=O)NC1CCCC1)CN(Cc1ccccc1)CC2 | 621
c1ccc(OCCSc2nc3ccccc3[nH]2)cc1 | 625
COC(=O)c1ccc2c(=O)n(Cc3ccc(F)cc3)c(N3CCN(C)CC3)nc2c1 | 668
CCn1c(=O)c(C(=O)NCc2ccccc2F)nc2cccnc21 | 824
CCc1csc(-c2ccc(N3CCN(C(=O)C4COc5ccccc5O4)CC3)nc2)n1 (stereo not drawn) | 1030
Cc1cc(C)n(-c2ccc(=O)n(CCNS(=O)(=O)c3ccccc3C(F)(F)F)n2)n1 | 763
O=C(Cn1c(CN2CCOCC2)nc2ccccc21)N1CCCC1 | 579
Cc1ccc(-n2nc(C)c3sc(N4CCCC(C(=O)NC(C)(C)C)C4)nc32)cc1 (stereo not drawn) | 1170
CC(C)CN1C(=O)c2cccn2CC1C(=O)NCCCOC(C)C (stereo not drawn) | 718
CCCN1N=C(C(=O)N2CCC(C)CC2)S(=O)(=O)c2ccc(C)cc21 | 993
CN(C)c1ccc(-c2nc(-c3cn(-c4ccc(F)cc4)nn3)no2)cc1 | 1060
Cc1cc(C(=O)NCCCc2ccccc2)c2c(=O)n(C)c(=O)n(C)c2n1 | 750
CN(C)c1cccc(C(=O)NCC(=O)N2CCCc3ccccc32)c1 | 728
c1cncc(-c2nc(-c3ccnc(N4CCCC4)c3)no2)c1 | 590

SMILES | RP-LC retention time [s]
CCOC(=O)c1ccc2nc(NC(=O)c3cccc([N+](=O)[O-])c3)sc2c1 | 959
CN(C)S(=O)(=O)c1ccc(-c2nc3ccccc3s2)cc1 | 578
CCOc1ccc(-c2nc(CN3CCN(C(=O)NC(C)C)CC3)c(C)o2)cc1 | 656
CC(C)c1nnc(-c2ccc(S(=O)(=O)N3CCN(c4ccccn4)CC3)o2)o1 | 675
Cc1ccc(C)c(S(=O)(=O)N2CCC3(CC2)NCCN=C3NCc2ccccc2C)c1 | 787
Cc1ccc(S(=O)(=O)N(C)CC2CCOC2)cc1F (stereo not drawn) | 849
Cn1ccc2ccn(CC(=O)Nc3cccc(Br)c3)c(=O)c21 | 827
CCc1ccc(CNC(=O)c2cn3c(n2)COCC3)cc1 | 710
O=C(NCCc1nc2cccnc2n1C1CCCC1)NCc1ccco1 | 652
CCCN1CCN(C(=O)c2ccc3c(c2)Sc2ncccc2C(=O)N3CC)CC1 | 579
O=C(NCCc1c[nH]c2ccc(Cl)cc12)C1CCCN(c2nc3cccnc3s2)C1 (stereo not drawn) | 858
Cc1cccc(C)c1NC(=O)CSc1ccc(N2CCCC(C(=O)NC3CC3)C2)nn1 (stereo not drawn) | 628
Cc1ccc(-n2c(=O)c3c(cc(C)n3C)n(CC(=O)Nc3ccccc3C)c2=O)cc1 | 846
CCc1nc2cc(N3CCCC(C(=O)NCCN4CCN(C)CC4)C3)cnc2nc1CC (stereo not drawn) | 583
COc1ccc(/C=C/c2nc(Cn3c(C)nc4ccccc4c3=O)no2)cc1 | 871
Cc1ccccc1CNC(=O)c1nnc(-c2ccc(S(=O)(=O)N(C)C)cc2)o1 | 874
O=C(c1cc(Cl)ccc1F)N1CCN(C(=O)c2nnn3c2COC(c2ccccc2)C3)CC1 (stereo not drawn) | 909
CCN(CC)CCNC(=O)C1CCN(C2=NS(=O)(=O)C(c3ccc(C)c(C)c3)=C2C)CC1 | 666
CC(=O)Nc1nc2c(s1)CN(CC(=O)Nc1ccc(F)c(Cl)c1)CC2 | 573
Cc1cc(=O)n(CC(=O)Nc2ccc(F)c(F)c2)cn1 | 620
Cc1sc(-c2cc(C(F)(F)F)on2)cc1S(=O)(=O)NCCc1ccc(Cl)cc1 | 1220
COC(=O)c1cccc(NC(=O)c2nc(C)oc2C)c1 | 840
